Series [1] can be described thus: HPLC analysis of the (S)-(+)-SAMe / (R)-(+)-SAMe diastereoisomer content (stability in time). The following applies: after four months from the date of production. Type of series: physicochemical. As for the experimental part: 3 samples of SAMIR® [(R,S)-SAMe], produced by Knoll Farmaceutici S.p.A., were analyzed by HPLC. The values measured for each sample are as follows:
The products obtained according to the process of the invention in EXAMPLES 1-3, samples 4-6 respectively, were analyzed, similarly to what has been described in example 4, after four months from the date of their production.
The measured values for each sample were as follows: […]

Series [2] has as its system enzymatic transmethylation. The conditions noted are these: De La Haba et al., J.A.C.S. 1959; cited from earlier work.
For series [3] the following is noted: Wu et al., Biochemistry 1983; cited from earlier work.

On to `C[S+](CC[C@H](N)C(=O)[O-])C[C@H]1O[C@@H](n2cnc3c(N)ncnc32)[C@H](O)[C@@H]1O.Cc1ccc(S(=O)(=O)O)cc1.O=S(=O)(O)O.O=S(=O)(O)O` (single isomer, unassigned) [SAMPLE 6], for which, in series [1], the “percentage of (R)-(+)-SAMe” value was 2% and the “percentage of (S)-(+)-SAMe” value amounted to 98%.
For `C[S@@+](CC[C@H](N)C(=O)[O-])C[C@H]1O[C@@H](n2cnc3c(N)ncnc32)C(O)C1O` (stereo in doubt) [(S)-(+)-SAMe, (S)-(+)-S-adenosyl-L-methionine], in series [2], the “enzymatic activity for the transmethylation” value was “enzymatically active”. Besides, in series [3], the “formation of the inactive diastereoisomer (R)-(+)-SAMe by spontaneous racemisation” value is reported as “about 20%”.
For the molecule `C[S@@+](CC[C@H](N)C(=O)[O-])C[C@H]1O[C@@H](n2cnc3c(N)ncnc32)C(O)C1O` (stereo in doubt) [(R)-(+)-SAMe, (R)-(+)-S-adenosyl-L-methionine], the “enzymatic activity for the transmethylation” value in series [2] is “inactive”.
Take `C[S+](CC[C@H](N)C(=O)[O-])C[C@H]1O[C@@H](n2cnc3c(N)ncnc32)[C@H](O)[C@@H]1O.Cc1ccc(S(=O)(=O)O)cc1.O=S(=O)(O)O.O=S(=O)(O)O` (single isomer, unassigned) [SAMPLE 5, (SS, RS)-SAMe disulphate paratoluensulphonate]: in series [1], the “percentage of (R)-(+)-SAMe” value was 2% and the “percentage of (S)-(+)-SAMe” value is given as 98%.
With `C[S+](CC[C@H](N)C(=O)[O-])C[C@H]1O[C@@H](n2cnc3c(N)ncnc32)[C@H](O)[C@@H]1O.Cc1ccc(S(=O)(=O)O)cc1.O=S(=O)(O)O.O=S(=O)(O)O` (single isomer, unassigned) [SAMPLE 4], in series [1], the “percentage of (R)-(+)-SAMe” value was determined as 1% and the “percentage of (S)-(+)-SAMe” value is listed as 99%. Moreover, the “percentage of (R)-(+)-SAMe” value in series [1] (listed as sample N. 4) was 1%.

The values above are taken from patent publication US6958233B2, “Process for the preparation of pharmaceutically acceptable salts of (R,S)-S-adenosyl-L-methionine” (Chementecno S.r.l., priority 2000, dated 2005).
